The source of these data is patent US9464113B2, “Anti-heparan sulfate peptides that block herpes simplex virus infection in vivo” (The Board of Trustees of the University of Illinois, priority 2010, dated 2016).

The test concerns HSV-1 (KOS) gL86. Description: HSV-1 entry into primary human corneal fibroblasts (CF). It counts as cell-based, herpes simplex virus type-1. Particulars: CF, 6 h, ONPG (FIG. 4A). The protocol: HSV-1 entry was assayed as described in Shukla et al., Cell 99:13-22 (1999). CHO-K1 cells were grown in 6-well plates to subconfluence and then transfected with 2.5 μg of expression plasmids for gD receptors nectin-1 (pBG38), HVEM (pBec10), 3-OST-3 isoform (pDS43), or pCDNA3.1 (empty vector) using LipofectAMINE (Gibco/BRL). At 16 h post-transfection, the cells were replated into 96-well dishes for pre-incubation with peptides at different concentrations for 60 min at room temperature. In parallel, natural target cells (HeLa, CF, and RPE) were also pre-treated with the peptides for the same duration. In all cases, unbound peptides were removed after washing 3× with PBS. Thereafter, cells were infected for 6 h with a recombinant virus, HSV-1 (KOS) gL86, at multiple plaque forming units (PFUs) and β-galactosidase assays were performed using either a soluble substrate o-nitrophenyl-β-D-galactopyranoside (ONPG at 3.0 mg/ml; ImmunoPure, Pierce) or X-gal (Sigma). For the soluble substrate, the enzymatic activity was measured at 410 nm using a micro-plate reader (Spectra Max 190, Molecular Devices, Sunnyvale, Calif.). For the X-gal assay, cells were fixed (2% formaldehyde and 0.2% glutaraldehyde) and permeabilized (2 mM MgCl2, 0.01% deoxycholate, and 0.02% nonidet NP-40 (Sigma)). 1 ml of β-galactosidase reagent (1.0 mg/ml X-gal in ferricyanide buffer) was added to each well and incubated at 37° C. for 90 min before the cells were examined using bright field microscopy under the 20× objectives of the inverted microscope (Zeiss Axiovert 100 M).
The ability of the G1 and G2 peptides to block HSV-1 entry into natural target cells (HeLa and primary cultures of human CF) was compared. A similar dosage response curve was generated when HeLa (FIG. 2A) or CF (FIG. 2B) were pre-treated with G1 or G2 peptides during HSV-1 entry. […] HeLa cells (FIG. 2A) and primary cultures of human corneal fibroblasts (CF) (FIG. 2B) were tested. Cells in 96-well plates were pre-treated for 60 min with indicated mM concentrations of G1, G2, or Cp peptides. Mock-treated cells (abbreviated as C) served as a control. Pretreated cells were infected with a β galactosidase-expressing recombinant virus HSV-1 (KOS) HSV-1 gL86 (25 pfu/cell) for 6 hr. Viral entry was quantitated as described above in reference to FIG. 1. Confirmation of HSV-1 entry blocking activity of G1, G2, and control (Cp) peptides on a per cell basis was obtained after cells were infected as described above followed by X-gal (1.0 mg/ml) staining (Right panels), which yields an insoluble blue product upon hydrolysis by β-galactosidase expressed from the input viral genomes. […] Microscopy was performed using a 20× objective of Zeiss Axiovert 100.
To better understand the inhibitory potential of G1 and G2 peptides, synthetic short variants (10-mer) were synthesized that lacked the terminal non-positively charged amino acids. In case of G1, N-terminus L and C-terminus H residues were removed. For G2, the N-terminus flanking residues (M and P) were removed. Without being bound by theory, it is believed that 12-mer peptides are too short to adopt substantial secondary or tertiary structures and that the primary structure of those peptides, which includes a defined sequence or groupings of positively charged residues, plays a critical role in mediating inhibition of HSV-1 entry. Synthetic 10-mer versions of G1 and G2 (shown above) were tested for blocking HSV-1(KOS)gL86 entry into cultured CF. After 6 h, the viral entry was measured by ONPG assay as described in FIG. 1.
Alanine (A) scanning mutagenesis was performed to identify specific amino acid residues responsible for each peptide's function, stability, and conformation. O'Nuallain et al., Biochemistry 46:13049-13058 (2007). Twelve synthetic peptides were made whereby each residue of G2 was sequentially replaced with an alanine residue and corresponding changes in the G2 peptide were evaluated for their ability to affect viral entry (FIG. 4B). […]

As to RSRTKIIRIR [10-mer version of G1], the “ability of 10-mer version to block HSV-1 entry compared with 12-mer” value is “almost completely lost its ability to block HSV-1 entry”.

RRRRIRRRQK [10-mer version of G2]: the “ability of 10-mer version to block HSV-1 entry compared with 12-mer” value was “very similar to the 12-mer in its ability to block HSV-1 entry”.
